Where a chain is given by its changes, count along the chain named. Like-named read-outs stand apart in the source and are kept apart here.
Key:
[1] = test system: CHO hM1 cells; assay: Protein content (method of Bradford) of CHO hM1 cells after pretreatment; format: cell-based, Chinese hamster
From the text: In order to account for these variances, the method of Bradford was used to quantify changes in protein content in CHO hM1 cells. […] This is in contrast to the complete inhibition of binding observed prior to prolonged waiting.

[2] = biological target: T1, human M1 muscarinic acetylcholine receptor (Homo sapiens, UniProt P11229); assay: cell-based
T1 sequence (P11229 1-460): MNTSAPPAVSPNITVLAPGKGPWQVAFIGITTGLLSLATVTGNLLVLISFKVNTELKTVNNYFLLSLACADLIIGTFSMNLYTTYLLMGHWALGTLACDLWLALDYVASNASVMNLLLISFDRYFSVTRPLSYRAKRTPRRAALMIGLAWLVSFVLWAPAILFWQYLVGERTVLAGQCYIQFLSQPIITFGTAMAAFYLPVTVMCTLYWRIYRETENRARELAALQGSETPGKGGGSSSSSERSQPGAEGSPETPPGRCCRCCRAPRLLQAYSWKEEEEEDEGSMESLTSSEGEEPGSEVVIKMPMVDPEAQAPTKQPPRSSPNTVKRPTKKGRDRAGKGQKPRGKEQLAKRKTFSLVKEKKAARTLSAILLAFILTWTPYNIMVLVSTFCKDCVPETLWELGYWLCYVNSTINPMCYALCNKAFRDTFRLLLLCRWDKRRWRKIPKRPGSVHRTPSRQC
Experimental: (§1) Labeled cells were harvested by trypsinization, centrifuged, and washed three times in HEPES buffer to remove unincorporated myo-[^3H]inositol. Labeled cells were distributed to assay tubes (500,000 cells/tube), and allowed to incubate for 15 min at 37°C. […] In all cases, the reaction was allowed to proceed in the presence of 10 mM LiCl for 1 h at 37°C after the addition of agonist before being stopped with chloroform/methanol (2∶1) and centrifuged (450×g; 15 min).
Alternatively, cells were grown in 24-well plates and loaded with myo-[^3H]inositol as described above. […] In all cases, the reaction was stopped with 0.3 M HClO4, neutralized with 0.15 M K2CO3, and samples were centrifuged (1500×g; 15 min).
(§2) For all experiments, [^14C]inositol-1-phosphate was added to each sample as an internal recovery standard. Total inositol phosphates were separated by ion exchange chromatography (AG1-X8 resin). The amount of radioactivity (disintegrations per minute) in each sample was determined by liquid scintillation spectrometry and adjusted for ^14C recovery.
(§3) In functional assays of PI hydrolysis, raw data were corrected for ^14C recovery to account for individual column differences in efficiency. Individual concentration-response curve data were fitted to a four-parameter logistic function using Prism to obtain estimates of EC50 (half-effective concentration) and Emax.

[3] = biological target: T2, rat M1 mutant^123 muscarinic acetylcholine receptor (Rattus norvegicus, UniProt P08482); details: mutant^123 cells stimulated with agonist (data not shown)
T2 sequence (P08482 1-460): T1 sequence (P11229 1-460) with A5V, T254S, P309S, R320K, A337G, I413V
Experimental: as §1, §2, §3

[4] = biological target: T3, rat M1 wild-type muscarinic acetylcholine receptor (Rattus norvegicus, UniProt P08482); details: naïve CHO rM1 cells
T3 sequence (P08482 1-460): T1 sequence (P11229 1-460) with A5V, T254S, P309S, R320K, A337G, I413V
Experimental: as §1, §2, §3

[5] = biological target: T3, rat M1 wild-type muscarinic acetylcholine receptor
[6] = biological target: T2, rat M1 mutant^123 muscarinic acetylcholine receptor
[7] = biological target: T3, rat M1 wild-type muscarinic acetylcholine receptor; details: washout, control 2200±90
[8] = biological target: T2, rat M1 mutant^123 muscarinic acetylcholine receptor; details: washout, control 2700±300
[9] = 1 h pretreatment, washout, 23 h wait

C[N+](C)(C)CCOC(N)=O [carbachol]
maximal decrease in protein content ([1]; 24-h pretreatment, at 10 mM carbachol): 26±6.6%

O=C1CCCN1CC#CCN1CCCC1 [oxotremorine]
Emax, maximal accumulation of inositol phosphates [2]: 10000±800 dpm | increase in the EC50 of agonist-stimulated PI hydrolysis [2]: 32 fold | EC50 ([2]; pEC50 of PI hydrolysis): 200 nM

CCCCCCOc1nsnc1C1=CCCN(C)C1 [xanomeline, 3-[3-hexyloxy-1,2,5-thiadiazo-4-yl]-1,2,5,6-tetrahydro-1-methylpyridine]
PI response [3]: did not produce a significant PI response | Emax, maximal response [4]: 18000±5500 dpm | maximal decrease in protein content ([1]; 1-h pretreatment followed by washing and prolonged waiting, at 10 µM xanomeline): 32±2% | maximal decrease in protein content ([1]; 24-h pretreatment, at 10 µM xanomeline): 65±7% | Imax, maximal percentage inhibition of [3H]NMS binding ([5]; 1 h pretreatment, washout): 95±0.5% | Imax, maximal percentage inhibition of [3H]NMS binding [5, 9]: 99±2.3% | percentage of high-affinity binding sites [5, 9]: 74±1.1% | Imax, maximal percentage inhibition of [3H]NMS binding ([5]; 24 h pretreatment, washout): 97±0.5% | percentage of high-affinity binding sites ([5]; 24 h pretreatment, washout): 47±7.7% | Imax, maximal percentage inhibition of [3H]NMS binding ([5]; Control: naïve cells): 99±0.6% | Imax, maximal percentage inhibition of [3H]NMS binding ([6]; 1 h pretreatment, washout): 96±0.7% | Imax, maximal percentage inhibition of [3H]NMS binding [6, 9]: 60±7.4 % | Imax, maximal percentage inhibition of [3H]NMS binding ([6]; 24 h pretreatment, washout): 90±2.9% | Imax, maximal percentage inhibition of [3H]NMS binding ([6]; Control: naïve cells): 99±0.5% | Bmax, maximal cell-surface receptor density ([7]; 3 µM xanomeline 1 h, 23 h wait): 1100±150 dpm/100,000 cells | Bmax, maximal cell-surface receptor density ([7]; 3 µM xanomeline 1 h): 2600±430 dpm/100,000 cells | Bmax, maximal cell-surface receptor density ([7]; 3 µM xanomeline 24 h): 1300±150 dpm/100,000 cells | Bmax, maximal cell-surface receptor density ([8]; 3 µM xanomeline 1 h, 23 h wait): 3400±610 dpm/100,000 cells | Bmax, maximal cell-surface receptor density ([8]; 3 µM xanomeline 1 h): 3000±380 dpm/100,000 cells | Bmax, maximal cell-surface receptor density ([8]; 3 µM xanomeline 24 h): 3600±320 dpm/100,000 cells

Reference: PMC3009740 (PLoS ONE, 2010)
